Laboratory results reported in patent publication US20240342111A1, “ISOMER-SPECIFIC NEUROPROTECTIVE EFFECT OF NATURAL RESERVATROL” (priority 2021, published 2024).

Tests used:
Cortical neurons = assay: Aβ-induced neurite degeneration (MAP2 immunostaining); assay type: cell-based, rat; conditions: for Aβ-induced neurotoxicity (neurite degeneration): pre-treated 50 μM 16 hours, then Aβ 50 nM 24 hours
Description: Cells were then exposed to excitotoxic NMDA (500 μM for 5 minutes) and viability was assessed using MTT assay after 24 hours. […] Rat cortical neurons (DIV 9) were treated with NMDA (50 μM for 5 minutes) and then with cis-RSV for 24 hours. Cells were then exposed to excitotoxic NMDA (500 μM for 5 minutes) and viability was assessed using MTT assay after 24 hours. […] Cell viability was assessed after 48 hours. […] Representative images (scale bar, 20 μm) for cortical neurons following neurite degeneration (MAP2—neurite marker, magenta and DAPI—nuclear marker, blue). […] Neurons were immunoassayed with anti-MAP2 antibody and quantified for neurite degeneration. The data represents mean±SEM for n=3 experiments with significance measured using Student's paired t-test.
Amyloid Beta oligomers were prepared as described previously, see Ahmed, M. et al. Structural conversion of neurotoxic amyloid-beta (1-42) oligomers to fibrils. Nat Struct Mol Biol 17, 561-567, doi:10.1038/nsmb.1799 (2010) and Wang, X. et al. Elevated Neuronal Excitability Due to Modulation of the Voltage-Gated Sodium Channel Nav1.6 by A beta (1-42). Front Neurosci-Switz 10, doi:ARTN 94 10.3389/fnins.2016.00094 (2016). […]
Neurite degeneration index was calculated as described previously, see Jin, M. et al. Soluble amyloid beta-protein dimers isolated from Alzheimer cortex directly induce Tau hyperphosphorylation and neuritic degeneration. […] The samples to be analyzed for neurite degeneration were stained using the standard immunofluorescence procedure with MAP2 (Alexa fluor 647) for neurites and DAPI staining for the nucleus. Neurite degeneration quantification was done using 5-6 regions of interest of equal sizes from each treatment condition. […] To detect degenerated neurites, we used the particle analyzer module of ImageJ and calculated the percentage of the area of the small fragments or particles (size=3-10 μm^2) to the intact neurites (size>25 μm2) with information derived from the binary images. A degeneration index (DI) was calculated as the fragmented neurite area ratio over intact neurite area. […]

H3 = assay: Immunoblot for histone H3 acetylation (Ac-K9-H3, Ac-K56-H3); assay type: cell-based, rat; conditions: 15 minutes
Rat cortical neurons = assay: MPP+ toxicity (mitochondrial inhibition), cell viability; assay type: cell-based
8-oxo-2′-dG = assay: Quantification of 8-oxo-2′-dG (oxidation level of neuronal DNA); assay type: cell-based, rat; conditions: 50 μM, 16 hours
From the text: Although Aβ exacerbates neuronal DNA damage through an unknown mechanism, see Suberbielle, E. et al. Physiologic brain activity causes DNA double-strand breaks in neurons, with exacerbation by amyloid-beta. […] Elife 7, doi:ARTN e34334 10.7554/eLife.34334 (2018), and (see FIG. 7 at (b)). […] Mol Cell 65, 932-940 e936, doi:10.1016/j.molcel.2017.01.003 (2017), in a time-dependent manner (see FIG. 7 at (c)). […] Representative immunoblots and quantification for the auto-PARylation level of PARP1 after the siRNA knockdown of TyrRS.

XRCC1 = assay: Immunoblot for DNA repair protein XRCC1; assay type: cell-based, rat; conditions: 5-50 μM, 4 hours
From the text: Ac-K56-H3 is a marker of genomic stability, see Driscoll, R., Hudson, A. & Jackson, S. P. Yeast Rtt109 promotes genome stability by acetylating histone H3 on lysine 56. Science 315, 649-652, doi:10.1126/science.1135862 (2007), and DNA damage, see Tjeertes, J. V., Miller, K. M. & Jackson, S. P. Screen for DNA-damage-responsive histone modifications identifies H3K9Ac and H3K56Ac in human cells. EMBO J 28, 1878-1889, doi:10.1038/emboj.2009.119 (2009), and inhibition of PARP1 causes the downregulation of RAD51, see Hegan, D. C. et al. Inhibition of poly(ADP-ribose) polymerase down-regulates BRCA1 and RAD51 in a pathway mediated by E2F4 and p130. […] The western blot images of the protein levels of HPF1 was quantified using ImageJ.
Cultured neurons (DIV 9-10) were washed once with cold 1×PBS and lysed in cell lysis buffer (20 mM Tris-HCl (pH 7.5), 150 mM NaCl, 1 mM Na2EDTA, 1 mM EGTA, 1% Triton, 2.5 mM sodium pyrophosphate, 1 mM beta-glycerophosphate, 1 mM Na3VO4, 1 μg/ml leupeptin supplemented with protease inhibitor). […] Lysates were quantified using Bio-Rad Protein Assay, and an equal amount of protein was loaded onto a 4 to 12% gradient gel (NuPAGE-Invitrogen). […] Quantification for the western blots was done using ImageJ (Version 1.53c).

| Structure (SMILES) | Aβ-induced neurotoxicity (neurite degeneration) (Cortical neurons) | acetylation level of H3 lysine 9 (Ac-K9-H3) (H3) | protection against MPP+ toxicity (cell viability) (Rat cortical neurons; 10 μM MPP, pre-treatment 50 μM for 16 hours, viability after 48 hours) | levels of 8-oxo-dG (8-oxo-2′-dG) | XRCC1 protein levels (XRCC1) | neurotoxicity (neurite degeneration) by itself (Cortical neurons; 50 μM, without Aβ) | acetylation level of H3 lysine 56 (Ac-K56-H3) (H3) | neurotoxicity by itself (Rat cortical neurons; high dose 50 μM, no toxin) |
| --- | --- | --- | --- | --- | --- | --- | --- | --- |
| Oc1ccc(/C=C\c2cc(O)cc(O)c2)cc1 [cis-RSV, cis-resveratrol] | protected against Aβtoxicity | upregulated the acetylation levels of H3 lysine 9 (Ac-K9-H3) | protects against MPP toxicity | downregulated both the protein levels of OGG1 and the levels of 8-oxo-dG | upregulated them | – | – | – |
| Oc1ccc(/C=C/c2cc(O)cc(O)c2)cc1 [trans-RSV, trans-resveratrol] | exacerbating Aβtoxicity | downregulated the lysine 9 and 56 acetylation levels of H3 | – | upregulated the levels of 8-oxo-2′-deoxyguanosine (8-oxo-dG) | downregulated the protein levels | itself induced neurotoxicity | downregulated the lysine 9 and 56 acetylation levels of H3 | neurotoxic |
